From patent US9624170B2, “4-(piperrazin-1-yl)-pyrrolidin-2-one compounds as monoacylglycerol lipase (MAGL) inhibitors” (TAKEDA PHARMACEUTICAL COMPANY LIMITED, priority 2013, dated 2017)

Biological target: T1, human MAGL (His-hMAGL) (Homo sapiens, UniProt Q99685)
T1 construct: made in house; host or cells: Escherichia coli BL21(DE3)
T1 sequence (Q99685 1-303): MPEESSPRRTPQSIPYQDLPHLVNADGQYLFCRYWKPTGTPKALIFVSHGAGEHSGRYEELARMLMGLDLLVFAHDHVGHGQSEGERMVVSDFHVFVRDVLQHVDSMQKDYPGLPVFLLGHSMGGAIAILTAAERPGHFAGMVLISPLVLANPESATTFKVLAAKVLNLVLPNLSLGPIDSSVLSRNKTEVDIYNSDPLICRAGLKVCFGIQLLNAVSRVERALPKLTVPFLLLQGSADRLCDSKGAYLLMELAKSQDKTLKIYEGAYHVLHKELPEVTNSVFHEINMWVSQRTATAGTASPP
Assay: Measurement of MAGL inhibitory activity by mass spectrometry
Type: biochemical
Conditions: MAGL inhibitory rate, test compound 10 μM, His-hMAGL, substrate 2-arachidonylglycerol, RapidFire-mass spectrometry
Outline: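 His-tagged human MAGL was reacted with 150 μM 2-arachidonylglycerol substrate (stock, added by 5 μL) for 10 min at room temperature, then stopped with formic acid. Arachidonic acid product was quantified by RapidFire–triple-quadrupole MS in negative SRM mode, corrected by arachidonic acid-d8, and converted to percent inhibition.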

| Structure (SMILES) | inhibition at 10 µM [%] |
| --- | --- |
| Cc1c(-c2cccc(N3CC(N4CCN(C(=O)c5nccs5)CC4)CC3=O)c2)cnn1C (stereo not shown) [Example 324, 1-(3-(1,5-dimethyl-1H-pyrazol-4-yl)phenyl)-4-(4-(1,3-thiazol-2-ylcarbonyl)piperazin-1-yl)pyrrolidin-2-one] | 101 |
| Cc1nn(C)cc1-c1cccc(N2CC(N3CCN(C(=O)c4nccs4)CC3)CC2=O)c1 (stereo not shown) [Example 325, 1-(3-(1,3-dimethyl-1H-pyrazol-4-yl)phenyl)-4-(4-(1,3-thiazol-2-ylcarbonyl)piperazin-1-yl)pyrrolidin-2-one] | 101 |
| Cn1ncc2c(-c3cccc(N4CC(N5CCN(C(=O)c6nccs6)CC5)CC4=O)c3)cccc21 (stereo not shown) [Example 326, 1-(3-(1-methyl-1H-indazol-4-yl)phenyl)-4-(4-(1,3-thiazol-2-ylcarbonyl)piperazin-1-yl)pyrrolidin-2-one] | 105 |
| O=C(c1nccs1)N1CCN(C2CC(=O)N(c3cccc(-c4c[nH]nc4C(F)(F)F)c3)C2)CC1 (stereo not shown) [Example 327, 4-(4-(1,3-thiazol-2-ylcarbonyl)piperazin-1-yl)-1-(3-(3-(trifluoromethyl)-1H-pyrazol-4-yl)phenyl)pyrrolidin-2-one] | 100 |
| O=C(c1nccs1)N1CCN(C2CC(=O)N(c3cccc(-c4coc5ccccc45)c3)C2)CC1 (stereo not shown) [Example 328, 1-(3-(1-benzofuran-3-yl)phenyl)-4-(4-(1,3-thiazol-2-ylcarbonyl)piperazin-1-yl)pyrrolidin-2-one] | 102 |
| O=C(c1nccs1)N1CCN(C2CC(=O)N(c3cccc(-c4cccc5ccoc45)c3)C2)CC1 (stereo not shown) [Example 329, 1-(3-(1-benzofuran-7-yl)phenyl)-4-(4-(1,3-thiazol-2-ylcarbonyl)piperazin-1-yl)pyrrolidin-2-one] | 104 |
| O=C(c1nccs1)N1CCN(C2CC(=O)N(c3cccc(-c4c(F)c(F)c(F)c(F)c4F)c3)C2)CC1 (stereo not shown) [Example 330, 1-(2′,3′,4′,5′,6′-pentafluorobiphenyl-3-yl)-4-(4-(1,3-thiazol-2-ylcarbonyl)piperazin-1-yl)pyrrolidin-2-one] | 101 |
| O=C(c1nccs1)N1CCN(C2CC(=O)N(c3cccc(-c4cnc5ccccn45)c3)C2)CC1 (stereo not shown) [Example 331, 1-(3-(imidazo[1,2-a]pyridin-3-yl)phenyl)-4-(4-(1,3-thiazol-2-ylcarbonyl)piperazin-1-yl)pyrrolidin-2-one] | 101 |
| O=C(c1nccs1)N1CCN(C2CC(=O)N(c3cccc(-c4n[nH]c5ccccc45)c3)C2)CC1 (stereo not shown) [Example 332, 1-(3-(1H-indazol-3-yl)phenyl)-4-(4-(1,3-thiazol-2-ylcarbonyl)piperazin-1-yl)pyrrolidin-2-one] | 100 |
| Cn1ccnc1-c1cccc(N2CC(N3CCN(C(=O)c4nccs4)CC3)CC2=O)c1 (stereo not shown) [Example 333, 1-(3-(1-methyl-1H-imidazol-2-yl)phenyl)-4-(4-(1,3-thiazol-2-ylcarbonyl)piperazin-1-yl)pyrrolidin-2-one] | 83 |
| O=C(c1nccs1)N1CCN(C2CC(=O)N(c3cccc(-c4nsc5ccccc45)c3)C2)CC1 (stereo not shown) [Example 334, 1-(3-(1,2-benzothiazol-3-yl)phenyl)-4-(4-(1,3-thiazol-2-ylcarbonyl)piperazin-1-yl)pyrrolidin-2-one] | 103 |
| Cc1nc2ccccn2c1-c1cccc(N2CC(N3CCN(C(=O)c4nccs4)CC3)CC2=O)c1 (stereo not shown) [Example 335, 1-(3-(2-methylimidazo[1,2-a]pyridin-3-yl)phenyl)-4-(4-(1,3-thiazol-2-ylcarbonyl)piperazin-1-yl)pyrrolidin-2-one] | 101 |
| N#Cc1cccc(F)c1-c1cccc(N2CC(N3CCN(C(=O)c4nccs4)CC3)CC2=O)c1 (stereo not shown) [Example 336, 6-fluoro-3′-(2-oxo-4-(4-(1,3-thiazol-2-ylcarbonyl)piperazin-1-yl)pyrrolidin-1-yl)biphenyl-2-carbonitrile] | 100 |
| O=C(c1nccs1)N1CCN(C2CC(=O)N(c3cccc(-c4c[nH]c5ncccc45)c3)C2)CC1 (stereo not shown) [Example 337, 1-(3-(1H-pyrrolo[2,3-b]pyridin-3-yl)phenyl)-4-(4-(1,3-thiazol-2-ylcarbonyl)piperazin-1-yl)pyrrolidin-2-one] | 99 |
| O=C(c1nccs1)N1CCN(C2CC(=O)N(c3cccc(-c4cccc5ccnn45)c3)C2)CC1 (stereo not shown) [Example 338, 1-(3-(pyrazolo[1,5-a]pyridin-7-yl)phenyl)-4-(4-(1,3-thiazol-2-ylcarbonyl)piperazin-1-yl)pyrrolidin-2-one] | 98 |
| COc1nccc(C)c1-c1cccc(N2CC(N3CCN(C(=O)c4nccs4)CC3)CC2=O)c1 (stereo not shown) [Example 339, 1-(3-(2-methoxy-4-methylpyridin-3-yl)phenyl)-4-(4-(1,3-thiazol-2-ylcarbonyl)piperazin-1-yl)pyrrolidin-2-one] | 100 |

| Structure (SMILES) | inhibition at 10 µM [%] |
| --- | --- |
| O=C(c1nccs1)N1CCN(C2CC(=O)N(c3cccc(-c4cccc5nccn45)c3)C2)CC1 (stereo not shown) [Example 340, 1-(3-(imidazo[1,2-a]pyridin-5-yl)phenyl)-4-(4-(1,3-thiazol-2-ylcarbonyl)piperazin-1-yl)pyrrolidin-2-one] | 99 |
| O=C(c1nccs1)N1CCN(C2CC(=O)N(c3cccc(-c4ccsc4C(F)(F)F)c3)C2)CC1 (stereo not shown) [Example 341, 4-(4-(1,3-thiazol-2-ylcarbonyl)piperazin-1-yl)-1-(3-(2-(trifluoromethyl)-3-thienyl)phenyl)pyrrolidin-2-one] | 101 |
| O=C(c1nccs1)N1CCN(C2CC(=O)N(c3cccc(-c4cccn5ccnc45)c3)C2)CC1 (stereo not shown) [Example 342, 1-(3-(imidazo[1,2-a]pyridin-8-yl)phenyl)-4-(4-(1,3-thiazol-2-ylcarbonyl)piperazin-1-yl)pyrrolidin-2-one] | 100 |
| COc1nccc2[nH]cc(-c3cccc(N4CC(N5CCN(C(=O)c6nccs6)CC5)CC4=O)c3)c12 (stereo not shown) [Example 343, 1-(3-(4-methoxy-1H-pyrrolo[3,2-c]pyridin-3-yl)phenyl)-4-(4-(1,3-thiazol-2-ylcarbonyl)piperazin-1-yl)pyrrolidin-2-one] | 101 |
| O=C(c1nccs1)N1CCN(C2CC(=O)N(c3cccc(-c4c(F)cccc4Cl)c3)C2)CC1 (stereo not shown) [Example 344, 1-(2′-chloro-6′-fluorobiphenyl-3-yl)-4-(4-(1,3-thiazol-2-ylcarbonyl)piperazin-1-yl)pyrrolidin-2-one] | 98 |
| Cc1cn2c(-c3cccc(N4CC(N5CCN(C(=O)c6nccs6)CC5)CC4=O)c3)cccc2n1 (stereo not shown) [Example 345, 1-(3-(2-methylimidazo[1,2-a]pyridin-5-yl)phenyl)-4-(4-(1,3-thiazol-2-ylcarbonyl)piperazin-1-yl)pyrrolidin-2-one] | 97 |
| O=C(c1nccs1)N1CCN(C2CC(=O)N(c3cccc(-c4ccnc5sccc45)c3)C2)CC1 (stereo not shown) [Example 346, 4-(4-(1,3-thiazol-2-ylcarbonyl)piperazin-1-yl)-1-(3-(thieno[2,3-b]pyridin-4-yl)phenyl)pyrrolidin-2-one] | 99 |
| O=C(c1nccs1)N1CCN(C2CC(=O)N(c3cccc(-c4csc5ncccc45)c3)C2)CC1 (stereo not shown) [Example 347, 4-(4-(1,3-thiazol-2-ylcarbonyl)piperazin-1-yl)-1-(3-(thieno[2,3-b]pyridin-3-yl)phenyl)pyrrolidin-2-one] | 100 |
| O=C1Cc2c(-c3cccc(N4CC(N5CCN(C(=O)c6nccs6)CC5)CC4=O)c3)ccnc2N1 (stereo not shown) [Example 348, 4-(3-(2-oxo-4-(4-(1,3-thiazol-2-ylcarbonyl)piperazin-1-yl)pyrrolidin-1-yl)phenyl)-1,3-dihydro-2H-pyrrolo[2,3-b]pyridin-2-one] | 99 |
| O=C(c1nccs1)N1CCN(C2CC(=O)N(c3cccc(-c4nc(C(F)(F)F)cs4)c3)C2)CC1 (stereo not shown) [Example 349, 4-(4-(1,3-thiazol-2-ylcarbonyl)piperazin-1-yl)-1-(3-(4-(trifluoromethyl)-1,3-thiazol-2-yl)phenyl)pyrrolidin-2-one] | 98 |
| O=C(c1nccs1)N1CCN(C2CC(=O)N(c3cc(F)cc(-c4ccccc4Cl)c3)C2)CC1 (stereo not shown) [Example 350, 1-(2′-chloro-5-fluorobiphenyl-3-yl)-4-(4-(1,3-thiazol-2-ylcarbonyl)piperazin-1-yl)pyrrolidin-2-one] | 104 |
| COc1c(-c2cccc(N3CC(N4CCN(C(=O)c5nccs5)CC4)CC3=O)c2)ccc2c1NC(=O)C2 (stereo not shown) [Example 351, 7-Methoxy-6-(3-(2-oxo-4-(4-(1,3-thiazol-2-ylcarbonyl)piperazin-1-yl)pyrrolidin-1-yl)phenyl)-1,3-dihydro-2H-indol-2-one] | 100 |
| Cc1ccnc(C)c1-c1cccc(N2CC(N3CCN(C(=O)c4nccs4)CC3)CC2=O)c1 (stereo not shown) [Example 352, 1-(3-(2,4-dimethylpyridin-3-yl)phenyl)-4-(4-(1,3-thiazol-2-ylcarbonyl)piperazin-1-yl)pyrrolidin-2-one] | 102 |
| O=C(c1nccs1)N1CCN(C2CC(=O)N(c3cc(-c4ccccc4F)c4[nH]ccc4c3)C2)CC1 (stereo not shown) [Example 353, 1-(7-(2-Fluorophenyl)-1H-indol-5-yl)-4-(4-(1,3-thiazol-2-ylcarbonyl)piperazin-1-yl)pyrrolidin-2-one] | 101 |
| COc1ccccc1-c1cc(N2CC(N3CCN(C(=O)c4nccs4)CC3)CC2=O)cc2cc[nH]c12 (stereo not shown) [Example 354, 1-(7-(2-methoxyphenyl)-1H-indol-5-yl)-4-(4-(1,3-thiazol-2-ylcarbonyl)piperazin-1-yl)pyrrolidin-2-one] | 101 |
